Assays:
[1] = molecular target: T1, neutral endopeptidase (NEP, EC 3.4.24.11) (Rattus norvegicus, UniProt P07861); assay: in vitro inhibition of neutral endopeptidase (GAAP in vitro assay); assay type: biochemical; settings: rat kidney cortex membranes, 500 μM glutaryl-Ala-Ala-Phe-2-naphthylamide, pH 7.4, 10 minutes at 25° C.
T1 construct: rat kidney cortex membranes; from tissue; host or cells: rat kidney cortex membranes
T1 sequence (P07861 1-750): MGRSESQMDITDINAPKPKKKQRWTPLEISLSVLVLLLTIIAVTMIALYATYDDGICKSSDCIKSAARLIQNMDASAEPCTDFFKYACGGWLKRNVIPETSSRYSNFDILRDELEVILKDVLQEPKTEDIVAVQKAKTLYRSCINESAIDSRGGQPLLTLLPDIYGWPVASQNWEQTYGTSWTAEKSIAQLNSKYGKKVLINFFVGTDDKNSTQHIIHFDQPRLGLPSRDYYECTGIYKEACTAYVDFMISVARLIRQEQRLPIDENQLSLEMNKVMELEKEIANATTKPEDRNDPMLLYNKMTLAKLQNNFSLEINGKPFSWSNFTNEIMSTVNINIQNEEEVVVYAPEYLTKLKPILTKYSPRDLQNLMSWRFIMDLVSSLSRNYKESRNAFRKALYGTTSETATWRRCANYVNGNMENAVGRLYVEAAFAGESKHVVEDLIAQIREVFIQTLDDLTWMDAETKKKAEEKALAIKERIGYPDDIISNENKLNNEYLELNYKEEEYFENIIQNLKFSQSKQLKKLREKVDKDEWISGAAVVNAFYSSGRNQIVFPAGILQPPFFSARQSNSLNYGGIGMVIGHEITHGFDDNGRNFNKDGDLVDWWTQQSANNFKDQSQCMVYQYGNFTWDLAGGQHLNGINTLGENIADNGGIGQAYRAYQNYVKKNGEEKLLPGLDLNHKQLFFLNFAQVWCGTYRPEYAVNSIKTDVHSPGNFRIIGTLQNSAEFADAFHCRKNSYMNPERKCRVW
Procedure: (§1) In vitro testing is most appropriate for the free carboxylic acids of the invention. The test compound is dissolved in dimethyl sulfoxide, ethanol, or 0.25M sodium bicarbonate solution, and the solution is diluted with buffer to the desired concentration.
The in vitro inhibition of neutral endopeptidase (NEP, EC 3.4.24.11) can be determined as follows:
Neutral endopeptidase 3.4.24.11 activity is determined by the hydrolysis of the substrate glutaryl-Ala-Ala-Phe-2-naphthylamide (GAAP) using a modified procedure of Orlowski and Wilk (1981). The incubation mixture (total volume 125 μl) contains 4.2 μg of protein (rat kidney cortex membranes prepared by method of Maeda et at, 1983), 50 mM tris buffer, pH 7.4 at 25° C., 500 μM substrate (final concentration), and leucine aminopeptidase M (2.5 μg). The mixture is incubated for 10 minutes at 25° C. and 100 μl of fast garnet (250 μg fast garnet/ml of 10% Tween 20 in 1M sodium acetate, pH 4.2) is added. Enzyme activity is measured spectrophotometrically at 540 nm. One unit of NEP 24.11 activity is defined as 1 nmol of 2-naphthylamine released per minute at 25° C. at pH 7.4. IC50 values are determined, i.e. the concentration of test compound required for 50% inhibition of the release of 2-naphthylamine.

[2] = molecular target: T2, angiotensin-converting enzyme (Oryctolagus cuniculus, UniProt P12822); assay: in vitro inhibition of the angiotensin-converting enzyme (hippuryl-histidyl-leucine substrate); assay type: biochemical; settings: pH 8.3, 30 minutes at 37° C., read-out: IC50, inhibiting ACE in vitro assay
T2 sequence (P12822 34-1310): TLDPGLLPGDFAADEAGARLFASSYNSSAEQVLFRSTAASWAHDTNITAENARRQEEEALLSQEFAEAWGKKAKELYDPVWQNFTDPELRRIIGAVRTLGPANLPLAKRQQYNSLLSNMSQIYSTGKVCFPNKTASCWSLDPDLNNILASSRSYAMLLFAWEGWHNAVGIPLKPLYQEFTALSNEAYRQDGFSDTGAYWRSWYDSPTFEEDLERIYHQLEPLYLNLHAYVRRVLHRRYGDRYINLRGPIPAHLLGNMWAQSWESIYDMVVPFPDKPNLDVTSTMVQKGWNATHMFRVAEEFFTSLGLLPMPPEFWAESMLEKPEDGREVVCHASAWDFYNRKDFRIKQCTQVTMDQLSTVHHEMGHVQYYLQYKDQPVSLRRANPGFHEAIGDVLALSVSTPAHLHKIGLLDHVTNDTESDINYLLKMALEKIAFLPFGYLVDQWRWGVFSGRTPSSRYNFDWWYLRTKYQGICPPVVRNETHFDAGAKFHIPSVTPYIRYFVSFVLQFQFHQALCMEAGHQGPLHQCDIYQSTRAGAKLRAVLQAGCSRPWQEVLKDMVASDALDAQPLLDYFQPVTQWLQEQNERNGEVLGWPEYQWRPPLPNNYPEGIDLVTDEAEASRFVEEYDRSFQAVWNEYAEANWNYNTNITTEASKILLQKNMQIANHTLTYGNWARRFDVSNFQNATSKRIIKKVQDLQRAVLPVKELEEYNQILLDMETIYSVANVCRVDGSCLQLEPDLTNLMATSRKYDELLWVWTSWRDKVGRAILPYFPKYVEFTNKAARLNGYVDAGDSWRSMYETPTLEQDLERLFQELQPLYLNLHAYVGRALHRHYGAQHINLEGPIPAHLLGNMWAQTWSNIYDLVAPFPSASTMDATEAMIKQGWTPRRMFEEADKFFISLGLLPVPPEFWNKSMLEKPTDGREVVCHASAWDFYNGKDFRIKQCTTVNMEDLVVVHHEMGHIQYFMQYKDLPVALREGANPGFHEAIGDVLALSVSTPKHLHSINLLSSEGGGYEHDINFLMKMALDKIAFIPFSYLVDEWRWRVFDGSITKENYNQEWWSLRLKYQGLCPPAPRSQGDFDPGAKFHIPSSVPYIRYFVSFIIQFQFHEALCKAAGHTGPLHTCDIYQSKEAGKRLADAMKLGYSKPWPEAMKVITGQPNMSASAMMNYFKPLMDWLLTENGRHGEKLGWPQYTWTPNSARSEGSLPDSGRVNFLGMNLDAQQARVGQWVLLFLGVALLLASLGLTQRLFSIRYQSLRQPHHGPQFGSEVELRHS
Procedure: as §1
The buffer for the ACE assay is 300 mM NaCl, […] KH2 PO4 (pH 8.3). The reaction is initiated by the addition of 100 μl of hippuryl-histidyl-leucine (2 mg/ml) to tubes containing enzyme and drug in a volume of 150 μl and tubes are incubated for 30 minutes at 37° C. The reaction is terminated by the addition of 0.75 ml 0.6N NaOH. 100 μl of freshly prepared O-pthaldehyde solution (2 mg/ml in methanol) is added to the tubes, the contents are mixed and allowed to stand at room temperature. After 10 minutes, 100 μl of 6N HCl is added. The tubes are centrifuged and the supernatant optical density is read at 360 nm. The results are plotted against drug concentration to determine the IC50, i.e., the drug concentration which gives half the activity of the control sample containing no drug.

IC50 [1] [nM] | IC50 [2] [nM] | SMILES
~15 | ~77 | O=C(N[C@H]1CCc2cccc3c2N(C1=O)[C@H](C(=O)O)C3)[C@@H](CS)Cc1ccc(-c2ccccc2)cc1 [6(b), 5-[((S)-2-biphenyl-4-ylmethyl-3-mercapto-propionyl)-(S)-amino]-1,2,4,5,6,7-hexahydroazepino[3,2,1-hi]indole-4-one-2-(S)-carboxylic acid]
– | ~30 | CC(C)[C@H](S)C(=O)N[C@H]1CCc2cccc3c2N(C1=O)[C@H](C(=O)O)C3 [5(a), 5-[((S)-2-mercapto-3-methylbutanoyl)-(S)-amino]-1,2,4,5,6,7-hexahydro-azepino[3,2,1-hi]indole-4-one-2-(S)-carboxylic acid]
~50 | ~30 | O=C(N[C@H]1CCc2cccc3c2N(C1=O)[C@H](C(=O)O)C3)[C@@H](S)Cc1ccccc1 [2(a), 5-[((S)-2-mercapto-3-phenylpropionyl)-(S)-amino]-1,2,4,5,6,7-hexahydroazepino[3,2,1-hi]indole-4-one-2-(S)-carboxylic acid]

From patent US5644055A, “Antihypertensive tricyclic azepine derivatives useful as inhibitors of enkephalinase and ACE” (Ciba-Geigy Corporation, priority 1995, dated 1997)
